Common to all, as to test: relative viability (nuclei count vs DMSO), 5 days (fraction); higher = more cells survive
Compound in the assay “Nelarabine + Olaparib”: COc1nc(N)nc2c1ncn2[C@@H]1O[C@H](CO)[C@@H](O)[C@@H]1O [Nelarabine] + O=C(c1cc(Cc2n[nH]c(=O)c3ccccc23)ccc1F)N1CCN(C(=O)C2CC2)CC1 [Olaparib] (partner 8 µM)
In short, it runs like this: (§1)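 For relative viability, nuclei counts in treated wells were divided by those in vehicle wells. Lung cancer cell lines had been pin-tool dosed in 1536-well plates the day after seeding and cultured for 5 days, then fixed and stained in one step (final 0.05% Triton X-100, 1% formaldehyde, 1 ug/ml Hoechst) and imaged at 4×. Doses were one drug alone or a fixed anchor-drug dose plus five library-drug doses (not always all listed) in √10 steps, and values are duplicate-plate medians.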

Compound in the assay “Adavosertib + Luminespib”: C=CCn1c(=O)c2cnc(Nc3ccc(N4CCN(C)CC4)cc3)nc2n1-c1cccc(C(C)(C)O)n1 [Adavosertib] + CCNC(=O)c1noc(-c2cc(C(C)C)c(O)cc2O)c1-c1ccc(CN2CCOCC2)cc1 [Luminespib] (partner 0.01 µM)
In short, it runs like this: as §1

Compound in the assay “Nelarabine + Decitabine”: COc1nc(N)nc2c1ncn2[C@@H]1O[C@H](CO)[C@@H](O)[C@@H]1O [Nelarabine] + Nc1ncn([C@H]2C[C@H](O)[C@@H](CO)O2)c(=O)n1 [Decitabine] (partner 2 µM)
In a few lines:
as §1

Compound in the assay “Nelarabine + Dasatinib”: COc1nc(N)nc2c1ncn2[C@@H]1O[C@H](CO)[C@@H](O)[C@@H]1O [Nelarabine] + Cc1nc(Nc2ncc(C(=O)Nc3c(C)cccc3Cl)s2)cc(N2CCN(CCO)CC2)n1 [Dasatinib] (partner 0.075 µM)
In a few lines:
as §1

With EMC-BAC-2, the relative viability was found to be 0.538 with Nelarabine + Olaparib (first compound 0.01 µM); 0.432 in the assay with Nelarabine + Olaparib (first compound 0.03162 µM); 0.486 with Nelarabine + Olaparib (first compound 0.1 µM); 0.529 in the assay with Nelarabine + Olaparib (first compound 0.3162 µM); 0.553 with Nelarabine + Olaparib (first compound 1 µM); 1.14 with Adavosertib + Luminespib (first compound 0.01 µM). Also, the relative viability with Adavosertib + Luminespib (first compound 0.03162 µM) turned out to be 1.25; in the assay with Adavosertib + Luminespib (first compound 0.1 µM), 1.18; in the assay with Adavosertib + Luminespib (first compound 0.3162 µM) it was 1.11; with Nelarabine + Decitabine (first compound 0.01 µM), 0.885; with Nelarabine + Decitabine (first compound 0.03162 µM), 1.11; with Nelarabine + Decitabine (first compound 0.1 µM) it was 0.912. Further, the relative viability with Nelarabine + Decitabine (first compound 0.3162 µM) amounted to 0.864; with Nelarabine + Decitabine (first compound 1 µM), 0.995; with Nelarabine + Dasatinib (first compound 0.01 µM), 0.409; with Nelarabine + Dasatinib (first compound 0.03162 µM), 0.348; in the assay with Nelarabine + Dasatinib (first compound 0.1 µM), 0.304; with Nelarabine + Dasatinib (first compound 0.3162 µM), 0.374. Further, the relative viability with Nelarabine + Dasatinib (first compound 1 µM) was determined as 0.356.

The values are drawn from the supplement of paper PMC10307832.
